Measured values reported in ChEMBL document CHEMBL1144278, “A new bactericidal lead structure for the protection of materials” (Bioorg Med Chem Lett, 2005).
Converted amounts (≈) assume the structure as drawn.

Assays:
[1] = test system: Pseudomonas aeruginosa; test: Minimum inhibitory concentration against Pseudomonas aeruginosa NCIB 6749 was determined in chem. def. medium; type: functional
[2] = test system: Pseudomonas aeruginosa; test: Minimum inhibitory concentration against Pseudomonas aeruginosa NCIB 6749 was determined in complex medium; type: functional
[3] = Half life period was determined; type: ADME; details: pH 9, 50 °C
[4] = test system: Pseudomonas aeruginosa; test: Minimum inhibitory concentration against Pseudomonas aeruginosa NCIB 6749 was determined in agar medium; type: functional
[5] = test system: Alcaligenes faecalis; test: Minimum inhibitory concentration against Alcaligenes faecalis was determined in agar medium; type: functional
[6] = Lethal dose in rat; type: toxicity; details: in vivo
[7] = test system: Bacillus subtilis; test: Minimum inhibitory concentration against Bacillus subtilis; type: functional
[8] = Half life periof was determined; type: ADME
[9] = test system: Pseudomonas aeruginosa; test: Minimum inhibitory concentration against Pseudomonas aeruginosa ATCC 15442 was determined in agar medium; type: functional
[10] = test system: Bacteria; test: Minimum inhibitory concentration against Corynebacterium was determined in agar medium; type: functional
[11] = test system: Pseudomonas aeruginosa; test: Minimum inhibitory concentration against Pseudomonas aeruginosa NCIB 12201 was determined in agar medium; type: functional

| SMILES | MIC [1] | MIC [2] | also measured |
| --- | --- | --- | --- |
| O=C(OCC(Cl)(Cl)Cl)N(C(=O)OCC(Cl)(Cl)Cl)c1onc2c1CCC2 | 10 µg/mL (≈ 21.1 µM) | 5 µg/mL (≈ 10.5 µM) | – |
| O=C(Nc1onc2c1CCC2)C(F)(F)F | – | – | half-life [3]: 4.38 days |
| Nc1onc2c1CCC2 | – | – | MIC [4]: < 1 µg/mL; MIC [5]: < 1 µg/mL; LD50 [6]: < 300 mg/kg; MIC [7]: 5 µg/mL (≈ 40.3 µM); half-life [8]: 4.04 days; MIC [9]: 5 µg/mL (≈ 40.3 µM); MIC [10]: < 1 µg/mL; MIC [11]: 7.5 µg/mL (≈ 60.4 µM) |
| CCCC(=O)N(C(=O)CCC)c1onc2c1CCC2 | – | – | half-life [3]: 0.25 days |
| C=C(C)OC(=O)N(C(=O)OC(=C)C)c1onc2c1CCC2 | 10 µg/mL (≈ 34.2 µM) | 10 µg/mL (≈ 34.2 µM) | – |

Further lines, with some results ahead:

| MIC [1] | MIC [2] | SMILES | also measured |
| --- | --- | --- | --- |
| 10 µg/mL (≈ 30.8 µM) | 10 µg/mL (≈ 30.8 µM) | CCCCOC(=O)N(C(=O)OCCCC)c1onc2c1CCC2 | – |
| 10 µg/mL (≈ 30.8 µM) | 5 µg/mL (≈ 15.4 µM) | CC(C)COC(=O)N(C(=O)OCC(C)C)c1onc2c1CCC2 | – |
| 10 µg/mL (≈ 23.5 µM) | 5 µg/mL (≈ 11.7 µM) | O=C(OCCBr)N(C(=O)OCCBr)c1onc2c1CCC2 | – |
| 10 µg/mL (≈ 29.7 µM) | 5 µg/mL (≈ 14.8 µM) | O=C(OCCCl)N(C(=O)OCCCl)c1onc2c1CCC2 | – |
